According to ChEMBL document CHEMBL3045136, “QSAR and flexible docking studies of some aldose reductase inhibitors obtained from natural origin” (Med Chem Res, 2012):

biological target: Aldo-keto reductase family 1 member B1 (Rattus norvegicus, UniProt P07943); assay: Inhibition of Rattus norvegicus (rat) lens aldose reductase

Compound | IC50 [µM]
CC(C(=O)O)N1C(=O)c2cc3c(c(O)c2C1=O)CC([C@@H](C)C(=O)O)O3 (some centres undefined) | 2
COc1cc2c(=O)oc3c(O)c(O)cc4c(=O)oc(c1O)c2c34 | 10
O=C(O)C1Cc2c(oc(=O)c3cc(O)c(O)c(O)c23)C1=O (centres undefined) | 2.4
CCOC(=O)C1Cc2c(oc(=O)c3cc(O)c(O)c(O)c23)C1=O (centres undefined) | 5.01
CCCC/C=C/CCCCCCCCCC1=C(OC)C(=O)C=C(OC)C1=O | 55
CC(=O)C[C@@]1(O)C(=O)C2=C(OC[C@@H]2C)c2ccc3c(C)cccc3c21 | 0.1
CC(=O)C[C@@]1(O)C(=O)C2=C(OC[C@@H]2C)c2ccc3c(c21)CCCC3(C)C | 1.74
O=C(/C=C/c1ccc(O)c2c1[C@H](C(=O)O[C@@H](Cc1ccc(O)c(O)c1)C(=O)O)[C@@H](c1ccc(O)c(O)c1)O2)O[C@H](Cc1ccc(O)c(O)c1)C(=O)O | 2.63
O=C(/C=C/c1ccc(O[C@@H](C(=O)O)[C@@H](O)c2ccc(O)c(O)c2)c(O)c1)O[C@H](Cc1ccc(O)c(O)c1)C(=O)O | 2.82
O=CC(O)C(O)(Oc1ccc(/C=C/C(=O)O[C@H](Cc2ccc(O)c(O)c2)C(=O)O)cc1O)C(O)C(O)CO (some centres undefined) | 3.16
C=C(C)[C@@H]1CC=C(COC2OC(CO)[C@H](O)[C@H](O)[C@H]2O)CC1 (some centres undefined) | 55
C=C(C)[C@@H]1CC=C(COC2OC(CO)[C@H](O)[C@@H](O)[C@@H]2O)CC1 (some centres undefined) | 14.5
CC(=O)O[C@H]1C[C@]2(CO)C3CC[C@@]4(C)C(C(=O)CC(=O)[C@@H]4C)[C@]3(C)CC[C@@]2(C)C2CC(C)(C)CC[C@@]21C (some centres undefined) | 47.9
CC1(C)C2CC[C@]3(C)C(CC=C4C5C[C@](C)(C(=O)O)C[C@@H](O)[C@]5(C)CC[C@]43C)[C@@]2(C)CC[C@@H]1O (some centres undefined) | 55
CC1(C)C2CC[C@]3(C)C(CC=C4C5C[C@](C)(C(=O)O)C[C@H](O)[C@]5(C)CC[C@]43C)[C@@]2(C)CC[C@@H]1O (some centres undefined) | 75.9
CC(C)c1ccc2c(c1)CCC1[C@@](C)(CO)CCC[C@]21C (some centres undefined) | 38.9
CC(C)c1ccc2c(c1)CCC1[C@@](C)(C(=O)O)CCC[C@]21C (some centres undefined) | 35.5
CC(=O)c1c(O)cc(O)cc1O[C@@H]1OC(COC(=O)c2cc(O)c(O)c(O)c2)[C@H](O)[C@H](O)[C@@H]1O (some centres undefined) | 28.8
O=C(/C=C/c1ccc(O)c(O)c1)OC1C[C@](O)(C(=O)O)C[C@H](O)[C@@H]1O (some centres undefined) | 1.82
CC1(C)C[C@H](O)[C@]23CC[C@@H](O)[C@](C)(CCC12)C3 (some centres undefined) | 95.5
CC1(C)CC2C1CC[C@@]1(C)C[C@]2(O)CC[C@@H]1O (some centres undefined) | 44.7
COc1cc2c(c(OC)c1OC)-c1c(cc(O)c(OC)c1OC)C[C@H](C)[C@H](C)[C@H]2O | 38
COc1cc(C(=O)/C(C)=C(/C)C(=O)c2ccc(O)c(OC)c2)ccc1O | 100
CCOc1ccc(C(=O)/C(C)=C(/C)C(=O)c2ccc(O)c(OC)c2)cc1OC | 34.7
COc1cc(/C=C(/C)[C@H](C)Cc2ccc(O)c(OC)c2)ccc1O | 35.5

Compound | IC50 [µM]
COc1cc([C@H]2O[C@H](c3ccc(O)c(OC)c3)[C@@H](C)[C@H]2C)ccc1O | 25.1
CC(CCC(=O)O)N1Cc2c(cc3c(c2O)CC([C@@H](C)C(=O)O)O3)C1=O (some centres undefined) | 12
C[C@@H](C(=O)O)C1Cc2c(cc3c(c2O)CN(CC(=O)O)C3=O)O1 (some centres undefined) | 1.26
CC(C(=O)O)N1Cc2c(cc3c(c2O)CC([C@@H](C)C(=O)O)O3)C1=O (some centres undefined) | 4.47
C[C@@H](C(=O)O)C1Cc2c(cc3c(c2O)C(=O)NC3=O)O1 (some centres undefined) | 5.37
C[C@@H](C(=O)O)C1Cc2c(cc3c(c2O)C(=O)N(CC(=O)O)C3=O)O1 (some centres undefined) | 0.447
CC(=O)C1=C(O)C2=CO[C@H](C)[C@@H](C)C2=C(C)C1=O | 8.71
CNC(=O)Oc1c(C)c(OC)cc2c1COC(C)C2 (centres undefined) | 34.7
Cc1cc(C(=O)O)c(O)c2c1[C@H](C)[C@@H](C)OC2 | 12
O=C1CC(O)C1=O (centres undefined) | 19.1
COC(=O)c1cc2cc3cc4cc(CC(=O)O)c(C(=O)/C=C(\O)c5ccccc5O)c(OC)c4c(OC)c3c(O)c2c(=O)o1 | 0.00129
C=C(C)C1CCC(CO[C@H]2OC(CO)C(O)[C@H](O)[C@@H]2O)CC1 (some centres undefined) | 46.8
C=C(C)C1CCC(COC2O[C@H](CO)[C@H](O)[C@@H](O)C2O)CC1 (some centres undefined) | 28.2
COc1cc2c(c(OC)c1C)COC(C)C2 (centres undefined) [6,8-DIMETHOXY-3,7-DIMETHYLISOCHROMAN] | 100
COc1cc2c(c(O)c1C)COC(C)C2 (centres undefined) [6-METHOXY-3,7-DIMETHYLISOCHROMAN-8-OL] | 33.1
O=Cc1ccc(CO)o1 [AES-103] | 182
C[C@H]1COC2=C1C(=O)C(=O)c1c2ccc2c1CCCC2(C)C [CRYPTOTANSHINONE] | 4.79
Cc1cccc2c3c(ccc12)C(=O)C(C(C)CO)=C(O)C3=O (centres undefined) [DANSHENXINKUN A] | 0.871
Cc1cccc2c3c(ccc12)C1=C(C(=O)C3=O)[C@@H](C)CO1 [DIHYDROTANSHINONE I] | 1.2
O=C1C(O)=CC(=O)c2c(O)cc(O)cc21 [FLAVIOLIN] | 43.7
COc1cc([C@H]2O[C@@H](c3ccc(O)c(OC)c3)[C@H](C)[C@@H]2C)ccc1O [NECTANDRIN B] | 38
O=C(/C=C/c1ccc(O)c(O)c1)O[C@H](Cc1ccc(O)c(O)c1)C(=O)O [ROSMARINIC ACID] | 3.89
Cc1coc2c1C(=O)C(=O)c1c-2ccc2c(C)cccc12 [TANSHINONE I] | 10
COc1cc([C@H]2O[C@@H](c3ccc(O)c(OC)c3)[C@@H](C)[C@H]2C)ccc1O [TETRAHYDROFUROGUAIACIN B] | 21.4
